Results: the NIST ThermoML archive (doi:10.1016/j.jct.2008.09.008)

Assay: wn = mass fraction of the nth substance listed
Settings: 101 kPa, Liquid; for viscosity: Capillary tube (Ostwald / Ubbelohde) method; for speed of sound: Linear variable-path acoustic interferometer; for mass density: Pycnometric method

OCCCCO [1,4-butanediol] + O
Settings	mass density, w1 = 0.2 [kg/m3]	mass density, w1 = 0.4 [kg/m3]	speed of sound, w1 = 0.2 [m/s]	speed of sound, w1 = 0.4 [m/s]	viscosity, w1 = 0.2 [mPa·s]	viscosity, w1 = 0.4 [mPa·s]
298.15 K	1004.93	1013.41	1605.3	1684.2	3.421	6.454
303.15 K	1002.93	1010.75	1606.6	1677.4	2.966	5.738
308.15 K	1000.79	1008.04	1607.8	1670.7	2.542	4.993
313.15 K	998.53	1005.28	1608.5	1664	2.142	4.221
318.15 K	996.15	1002.46	1609.3	1657.2	1.774	3.421
